What is called IC50 is the concentration that gives 50% inhibition.

Each structure is given as a SMILES string.

The target in this assay is Microtubule-associated protein tau (Homo sapiens, UniProt P10636). Put plainly: AlphaLisa Assay: Tau target (equal mixture of each construct at 300 nM) was prepared in buffer (Tris-HCl pH 7.4) and was incubated in 96-well plates at room temperature for 4 hours with vehicle control (DMSO) and a dose range of a compound of the disclosure (0.098 uM-50 uM). AlphaLisa acceptor beads & donor beads with ligands to the epitope tags (Perkin Elmer) were diluted (final 20 ug/mL per bead) in bead buffer (25 mM HEPES pH 7.4, 100 mM NaCl, 0.1% Tween-20), added to the wells and incubated 1 hour at room temperature. The positive control (non-incubated target) & blank (no tau) were prepared and mixed with beads in bead buffer and the plate was read immediately using the EnVision plate reader (Perkin Elmer). For orientation: Bead proximity is the source of the signal in Alpha formats.
Sequence of Microtubule-associated protein tau (P10636 whole entry): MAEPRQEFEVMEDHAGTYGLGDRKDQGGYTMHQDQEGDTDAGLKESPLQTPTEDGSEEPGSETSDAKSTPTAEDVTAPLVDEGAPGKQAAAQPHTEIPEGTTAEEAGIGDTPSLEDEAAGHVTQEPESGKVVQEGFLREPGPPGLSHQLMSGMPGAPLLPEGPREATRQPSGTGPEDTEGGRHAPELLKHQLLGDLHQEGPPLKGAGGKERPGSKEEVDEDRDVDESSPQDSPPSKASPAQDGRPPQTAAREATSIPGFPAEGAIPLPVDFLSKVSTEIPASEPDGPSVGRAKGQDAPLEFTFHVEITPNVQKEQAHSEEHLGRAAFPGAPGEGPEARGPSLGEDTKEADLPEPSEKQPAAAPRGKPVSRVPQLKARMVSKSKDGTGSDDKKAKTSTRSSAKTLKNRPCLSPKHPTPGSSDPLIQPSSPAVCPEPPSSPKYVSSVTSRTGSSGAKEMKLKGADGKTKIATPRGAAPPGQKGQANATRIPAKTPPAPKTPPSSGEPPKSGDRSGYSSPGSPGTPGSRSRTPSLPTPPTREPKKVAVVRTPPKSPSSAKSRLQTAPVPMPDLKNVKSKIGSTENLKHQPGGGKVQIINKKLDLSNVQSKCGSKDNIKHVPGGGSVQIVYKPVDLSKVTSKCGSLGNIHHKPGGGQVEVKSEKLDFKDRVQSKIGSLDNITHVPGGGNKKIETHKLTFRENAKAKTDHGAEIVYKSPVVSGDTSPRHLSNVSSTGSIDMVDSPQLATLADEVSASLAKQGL

On to `CC(=O)CCc1oc2ccc(-c3cccc(O)c3)cc2c1-c1ccc(C)o1`, for which the IC50 stood at 1390 nM.
Turning to `CC(=O)CCc1oc2cc(-c3cccnc3)ccc2c1-c1ccc(C)o1`, the IC50 worked out at 4020 nM.
`Cc1ccc(-c2c(CCc3nc4ccccc4[nH]3)oc3ccc(Br)cc23)o1`: the IC50 stood at 2060 nM.
Take `CC(=O)CCc1oc2ccc(-c3cccnc3)cc2c1-c1ccc(C)o1`: the half-inhibitory concentration (IC50) was determined as 7550 nM.
Regarding `COc1ccc(-c2ccc3oc(CCC(C)=O)c(-c4ccc(C)o4)c3c2)cn1`, the IC50 was 1270 nM.
With `COc1cc(-c2ccc3c(-c4ccc(C)o4)c(CCC(C)=O)oc3c2)ccn1`, the IC50 stood at 1570 nM.
On to `COc1cc(-c2ccc3oc(CCC(C)=O)c(-c4ccc(C)o4)c3c2)ccn1`, for which the IC50 was determined as 100 nM.
For the compound `Cc1ccc(-c2c(CCC(C)(C)O)oc3ccc(Br)cc23)o1`, the IC50 stood at 100 nM.
Next, `CC(=O)CCc1oc2ccc(-c3ccncc3)cc2c1-c1ccc(C)o1`: 6350 nM; `COc1cccc(-c2ccc3oc(CCC(C)=O)c(-c4ccc(C)o4)c3c2)c1`: 3030 nM.
`Cc1ccc(C(C)(O)CCc2oc3ccc(Br)cc3c2-c2ccc(C)o2)cc1` (stereo unspecified): the IC50 amounted to 1930 nM.
